Columns and labels:
small cell lung cancer = assay: Clinical treatment outcome of the patients the circulating tumor cells were taken from; format: in vivo, human; settings: treated clinically
Text: As can be known from FIG. 54, in the presence of cisplatin, etoposide, and Topotecan, the survival rate of the circulating tumor cells 21 derived the blood of the first patient is more than 85%, and there is no significant decrease compared with the control group Ctrl.
As can be known from FIG. 55, in the presence of cisplatin and topotecan, the survival rate of the expanded circulating tumor cells 21 from the second patient is less than 20%, and there is significant decrease compared with the control group Ctrl. […] In combination with the outcome where the patient is treated with cisplatin, etoposide, and Topotecan clinically, it can be further confirmed that the cisplatin and topotecan respond well to small cell lung cancer in the second patients, that is, have therapeutic effect.

[1] = test system: circulating tumor cells derived from patients with small cell lung cancer; assay: CellTiter Luminescent cell viability of expanded circulating tumor cells treated with drugs; format: cell-based, human; settings: expanded circulating tumor cells from the second small cell lung cancer patient; FIG. 55; result in words
Protocol: In some embodiments, the preparation of the cell solution can be performed as follows. 5 ml of blood is sampled respectively patients having breast cancer, pancreatic cancer, and small cell lung cancer. 15 ml of Ficoll-Paque is added to a Leucosep™ centrifuge tube and centrifuged. The blood is diluted in phosphate buffered saline (PBS) and transferred to the Leucosep™ centrifuge tube, followed by centrifugation. After centrifugation, the supernatant in the Leucosep™ centrifuge tube is removed, and the retained lower solution is a monocyte phase. A circulating tumor cell enriched antibody mixture (RosetteSep™ CTC Enrichment Cocktail Containing AntiCD56) is added to the monocyte phase, and mixed at room temperature. After mixing, a PBS buffer containing 2% (v/v) Fetal Bovine Serum (FSB) is added and mixed to give a monocyte solution. Also, the monocyte solution is added to Ficoll-Paque and centrifuged at room temperature. […]
According to the above procedure, the circulating tumor cells 21 are isolated from the blood of two patients with small cell lung cancer and cultured. […] The cell viability was measured by CellTiter Luminescent cell viability and the survival rate is calculated by the following formula:
Cell survival rate (%)=(luminescence density in the treated group/luminescence density in the control group)×100%. […]

Structure (SMILES) | Clinical therapeutic effect on small cell lung cancer (small cell lung cancer; first patient) | Clinical therapeutic effect on small cell lung cancer (small cell lung cancer; second patient) | Cell survival rate compared with control group [1]
CC[C@@]1(O)C(=O)OCc2c1cc1n(c2=O)Cc2cc3c(CN(C)C)c(O)ccc3nc2-1 [Topotecan] | no significant therapeutic effect | respond well | –
N.N.[Cl][Pt][Cl] [cisplatin] | no significant therapeutic effect | respond well | –
COc1cc([C@@H]2c3cc4c(cc3[C@@H](O[C@@H]3O[C@@H]5CO[C@@H](C)O[C@H]5[C@H](O)[C@H]3O)[C@H]3COC(=O)[C@H]23)OCO4)cc(OC)c1O [etoposide] | no significant therapeutic effect | – | lower than the control group Ctrl

Source: patent publication US20190300832A1, “METHOD AND KIT FOR EXPANDING CIRCULATING TUMOR CELLS IN VITRO” (Taipei Medical University, priority 2018, published 2019)
